In patent publication US11999746B2, “Compounds” (GlaxoSmithKline Intellectual Property Development Limited, priority 2014, dated 2024):

Assays:
[1] = molecular target: T1, recombinant human Lp-PLA2 (Homo sapiens, UniProt Q13093); assay: (1a) PED6 assay, recombinant human Lp-PLA2 (rhLp-PLA2); assay type: biochemical; conditions: Examples 1-167 and 413-430 were tested here, one experiment or average of multiple experiments, read-out: rhLp-PLA2 (pIC50) (converted)
T1 sequence (Q13093 22-441): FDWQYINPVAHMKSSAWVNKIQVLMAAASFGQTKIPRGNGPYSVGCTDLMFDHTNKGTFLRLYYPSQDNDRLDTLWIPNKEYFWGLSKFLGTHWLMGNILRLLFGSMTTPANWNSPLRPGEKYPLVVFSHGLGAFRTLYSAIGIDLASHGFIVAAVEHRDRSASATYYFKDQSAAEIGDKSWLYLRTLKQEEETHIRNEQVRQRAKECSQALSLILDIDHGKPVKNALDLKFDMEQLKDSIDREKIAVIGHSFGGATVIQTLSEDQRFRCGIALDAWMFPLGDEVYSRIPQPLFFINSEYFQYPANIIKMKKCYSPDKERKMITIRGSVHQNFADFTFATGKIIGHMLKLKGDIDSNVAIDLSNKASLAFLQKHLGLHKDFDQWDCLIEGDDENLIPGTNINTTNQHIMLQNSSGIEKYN
In short: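 PED6 (2 μM final after 1:1 addition of 4 μM stock) cleavage by rhLp-PLA2 (4 nM working solution) in 50 mM HEPES pH 7.4, 150 mM NaCl, 1 mM CHAPS; compounds preincubated with enzyme 30 minutes, reaction 20 min at room temperature. Fluorescence at ex 480/em 540; pIC50 from curve fit.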

Lp-PLA2 in human plasma = molecular target: T2, Lp-PLA2 in human plasma (Homo sapiens, UniProt Q13093); assay: (3a) Lp-PLA2 human plasma Thio-PAF assay; assay type: biochemical; conditions: (3a) Thio-PAF assay, pooled human plasma; Examples 1-265 and 413-430 were tested here; read-out: pIC50 in the Lp-PLA2 human plasma assay (converted)
T2 construct: from tissue; host or cells: pooled human plasma
T2 sequence (Q13093 22-441): T1 sequence (Q13093 22-441)
In short: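 Endogenous Lp-PLA2 activity in frozen pooled human plasma measured as thiol release from 2-thio-PAF, detected by CPM fluorescence (ex 380/em 485). Compound preincubation 30 min; 2-min reaction in HEPES pH 7.4 buffer with NEM, stopped with 5% TFA, read 40 min later at room temperature; values as pIC50.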

| Structure (SMILES) | IC50 [1] [nM] | IC50 (Lp-PLA2 in human plasma) [nM] |
| --- | --- | --- |
| O=c1nc(OCc2cc(F)c(F)c(F)c2)cc2n1C[C@H]1CCCCN21 [Example E54, (R)-3-((3,4,5-Trifluorobenzyl)oxy)-6,7,8,9,9a,10-hexahydro-1H-pyrido[1′,2′:3,4]imidazo[1,2-c]pyrimidin-1-one] | ≤ 100 | ≤ 100 |
| O=c1nc(OCc2ccc(F)cc2F)cc2n1C[C@H]1CCCCN21 [Example E55, (R)-3-((2,4-Difluorobenzyl)oxy)-6,7,8,9,9a,10-hexahydro-1H-pyrido[1′,2′:3,4]imidazo[1,2-c] pyrimidin-1-one] | ≤ 100 | ≤ 10000 |
| O=c1nc(OCc2cccc(F)c2F)cc2n1C[C@H]1CCCCN21 [Example E56, (R)-3-((2,3-Difluorobenzyl)oxy)-6,7,8,9,9a,10-hexahydro-1H-pyrido[1′,2′:3,4]imidazo[1,2-c] pyrimidin-1-one] | ≤ 100 | ≤ 10000 |
| O=c1nc(OCc2ccc(F)cc2F)cc2n1C[C@@H]1CCCCN21 [Example E57, (S)-3-((2,4-Difluorobenzyl)oxy)-6,7,8,9,9a,10-hexahydro-1H-pyrido[1′,2′:3,4]imidazo[1,2-c] pyrimidin-1-one] | ≤ 100 | ≤ 10000 |
| O=c1nc(OCc2cccc(F)c2F)cc2n1C[C@@H]1CCCCN21 [Example E58, (S)-3-((2,3-Difluorobenzyl)oxy)-6,7,8,9,9a,10-hexahydro-1H-pyrido[1′,2′:3,4]imidazo[1,2-c] pyrimidin-1-one] | ≤ 100 | ≤ 10000 |
| O=c1nc(OCc2cc(F)c(F)cc2F)cc2n1C[C@@H]1CCCCN21 [Example E59, (S)-3-((2,4,5-Trifluorobenzyl)oxy)-6,7,8,9,9a,10-hexahydro-1H-pyrido[1′,2′:3,4]imidazo[1,2-c]pyrimidin-1-one] | ≤ 100 | ≤ 10000 |
| O=c1nc(OCc2cccc(F)c2)cc2n1C[C@@H]1CCCCN21 [Example E60, (S)-3-((3-Fluorobenzyl)oxy)-6,7,8,9,9a,10-hexahydro-1H-pyrido[1′,2′:3,4]imidazo[1,2-c] pyrimidin-1-one] | ≤ 100 | ≤ 10000 |
| O=c1nc(OCc2cc(F)c(OC3(CCF)CC3)c(F)c2)cc2n1C[C@H]1CCCCN21 [Example E62, (R)-3-((3,5-Difluoro-4-(1-(2-fluoroethyl)cyclopropoxy)benzyl)oxy)-6,7,8,9,9a,10-hexahydro-1H-pyrido[1′,2′:3,4]imidazo[1,2-c]pyrimidin-1-one] | ≤ 100 | ≤ 10000 |
| Cn1cc(Oc2c(F)cc(COc3cc4n(c(=O)n3)CC3CCCN43)cc2F)cn1 (centres unmarked) [Example E63, 3-((3,5-Difluoro-4-((1-methyl-1H-pyrazol-4-yl)oxy)benzyl)oxy)-7,8,8a,9-tetrahydro pyrrolo[1′,2′:3, 4] imidazo[1,2-c] pyrimidin-1(6H)-one] | ≤ 100 | ≤ 10000 |
| CCn1cc(Oc2c(F)cc(COc3cc4n(c(=O)n3)CC3CCCN43)cc2F)cn1 (centres unmarked) [Example E64, 3-((4-((1-Ethyl-1H-pyrazol-4-yl)oxy)-3,5-difluorobenzyl)oxy)-7,8,8a, 9-tetrahydropyrrolo[1′,2′:3,4]imidazo[1,2-c]pyrimidin-1(6H)-one] | ≤ 100 | ≤ 10000 |
| CC(C)n1cc(Oc2c(F)cc(COc3cc4n(c(=O)n3)CC3CCCN43)cc2F)cn1 (centres unmarked) [Example E65, 3-((3,5-Difluoro-4-((1-isopropyl-1H-pyrazol-4-yl)oxy)benzyl)oxy)-7,8,8a, 9-tetrahydro pyrrolo[1′,2′:3,4]imidazo[1,2-c]pyrimidin-1(6H)-one] | ≤ 100 | ≤ 10000 |
| Cn1cc(Oc2c(F)cc(COc3cc4n(c(=O)n3)C[C@H]3CCCN43)cc2F)cn1 [Example E66, (R)-3-((3,5-difluoro-4-((1-methyl-1H-pyrazol-4-yl)oxy)benzyl)oxy)-7,8,8a, 9-tetrahydro pyrrolo[1′,2′:3,4]imidazo[1,2-c]pyrimidin-1(6H)-one] | ≤ 100 | ≤ 10000 |
| Cn1cc(Oc2ccc(COc3cc4n(c(=O)n3)C[C@H]3CCCN43)cc2F)cn1 [Example E68, (R)-3-((3-fluoro-4-((1-methyl-1H-pyrazol-4-yl)oxy)benzyl)oxy)-7,8,8a, 9-tetrahydro pyrrolo[1′,2′:3,4]imidazo[1,2-c]pyrimidin-1(6H)-one] | ≤ 100 | ≤ 10000 |
| O=c1nc(OCc2ccc(Oc3cnc(C(F)(F)F)nc3)c(F)c2)cc2n1C[C@H]1CCCN21 [Example E69, (R)-3-((3-fluoro-4-((2-(trifluoromethyl)pyrimidin-5-yl)oxy)benzyl)oxy)-7,8,8a, 9-tetra hydropyrrolo[1′,2′:3,4]imidazo[1,2-c]pyrimidin-1(6H)-one] | ≤ 100 | ≤ 100 |
| O=c1nc(OCc2cc(F)c(F)c(F)c2)cc2n1C[C@H]1CCCN21 [Example E70, (R)-3-((3,4,5-trifluorobenzyl)oxy)-7,8,8a,9-tetrahydropyrrolo[1′,2′:3,4]imidazo[1,2-c] pyrimidin-1(6H)-one] | ≤ 100 | ≤ 100 |
| O=c1nc(OCc2ccc(Oc3cnc(C(F)(F)F)nc3)c(F)c2)cc2n1C[C@@H]1CCCN21 [Example E72, (S)-3-((3-fluoro-4-((2-(trifluoromethyl)pyrimidin-5-yl)oxy)benzyl)oxy)-7,8,8a, 9-tetra hydropyrrolo[1′,2′:3,4]imidazo[1,2-c]pyrimidin-1(6H)-one] | ≤ 100 | ≤ 10000 |
| O=c1nc(OCc2cc(F)c(F)c(F)c2)cc2n1C[C@@H]1CCCN21 [Example E73, (S)-3-((3,4,5-trifluorobenzyl)oxy)-7,8,8a,9-tetrahydropyrrolo[1,2′:3,4]imidazo[1,2-c] pyrimidin-1(6H)-one] | ≤ 100 | ≤ 10000 |
| O=c1nc(OCc2cc(F)c(Oc3ccc(F)c(F)c3)c(F)c2)cc2n1C[C@@H]1CCCN21 [Example E74, (S)-3-((4-(3,4-difluorophenoxy)-3,5-difluorobenzyl)oxy)-7,8,8a,9-tetrahydropyrrolo[1′,2′:3,4]imidazo[1,2-c]pyrimidin-1(6H)-one] | ≤ 100 | ≤ 10000 |
| O=c1nc(OCc2cc(F)c(Oc3ccnc(C(F)(F)F)c3)c(F)c2)cc2n1CC1CCCN21 (centres unmarked) [Example E75, 3-((3,5-difluoro-4-((2-(trifluoromethyl)pyridin-4-yl)oxy)benzyl)oxy)-7,8,8a, 9-tetrahydro pyrrolo[1′, 2′:3, 4]imidazo[1,2-c]pyrimidin-1(6H)-one] | ≤ 1 | ≤ 100 |
| O=c1nc(OCc2cnc(Oc3ccc(Cl)c(C(F)(F)F)c3)c(F)c2)cc2n1CC1CCCN21 (centres unmarked) [Example E76, 3-((6-(4-Chloro-3-(trifluoromethyl)phenoxy)-5-fluoropyridin-3-yl)methoxy)-7,8,8a,9 tetra hydro pyrrolo[1′,2′:3,4]imidazo[1,2-c]pyrimidin-1(6H)-one] | ≤ 100 | ≤ 10000 |
| N#Cc1cc(COc2cc3n(c(=O)n2)CC2CCCN32)ccc1Oc1ccc(Cl)c(C(F)(F)F)c1 (centres unmarked) [Example E77, 2-(4-Chloro-3-(trifluoromethyl)phenoxy)-5-(((1-oxo-1,6,7,8,8a,9-hexahydropyrrolo[1,2′:3,4]imidazo[1,2-c]pyrimidin-3-yl)oxy)methyl)benzonitrile] | ≤ 1 | ≤ 100 |
| O=c1nc(OCc2cc(F)c(Oc3ccc(C(F)(F)F)nc3)c(F)c2)cc2n1CC1CCCN21 (centres unmarked) [Example E78, 3-((3,5-Difluoro-4-((6-(trifluoromethyl)pyridin-3-yl)oxy)benzyl)oxy)-7,8,8a,9-tetrahydro pyrrolo[1′,2′:3,4]imidazo[1,2-c]pyrimidin-1(6H)-one] | ≤ 1 | ≤ 100 |
| O=c1nc(OCc2cc(F)c(Oc3ccc(C(F)(F)F)nc3)c(F)c2)cc2n1C[C@H]1CCCN21 [Example E79, (R)-3-((3,5-difluoro-4-((6-(trifluoromethyl)pyridin-3-yl)oxy)benzyl)oxy)-7,8,8a,9-tetrahydro pyrrolo[1′,2′:3,4]imidazo[1,2-c]pyrimidin-1(6H)-one] | ≤ 1 | ≤ 100 |
| O=c1nc(OCc2cc(F)c(Oc3ccc(C(F)(F)F)nc3)c(F)c2)cc2n1C[C@@H]1CCCN21 [Example E80, (S)-3-((3,5-difluoro-4-((6-(trifluoromethyl)pyridin-3-yl)oxy)benzyl)oxy)-7,8,8a,9-tetrahydro pyrrolo[1′,2′:3,4]imidazo[1,2-c]pyrimidin-1(6H)-one] | ≤ 100 | ≤ 10000 |
| O=c1nc(OCc2cc(F)c(Oc3cccc(C(F)(F)F)c3)c(F)c2)cc2n1CC1CCCN21 (centres unmarked) [Example E81, 3-((3,5-difluoro-4-(3-(trifluoromethyl)phenoxy)benzyl)oxy)-7,8,8a,9-tetrahydropyrrolo[1′,2′:3, 4]imidazo[1,2-c]pyrimidin-1(6H)-one] | ≤ 1 | ≤ 100 |
